The target of this assay is T1, c-kit (Homo sapiens, UniProt P10721).
T1 construct: human Mo7e cells which endogenously express c-kit; endogenous in cells; host or cells: human Mo7e cells (SCF-dependent promegakaryocytic leukemia line)
Nature of the assay: Mo7e cell proliferation assay (SCF dependent proliferation). The conditions noted are these: human Mo7e cells stimulated with human recombinant SCF, 48 h, CellTiter Glo, 1% FBS (footnote). In kind it is cell-based. A digest of the protocol:
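SCF-dependent proliferation of human Mo7e cells, which express c-kit endogenously, was measured after 48 h at 37° C by CellTiter Glo luminescence. IC50 was taken as the concentration giving a response halfway between the baseline and maximum responses.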

Our source for the IC50 values is US20150011508A1, “COMPOUNDS AND COMPOSITIONS AS C-KIT KINASE INHIBITORS” (priority 2011, published 2015).

T1 sequence (P10721 26-976): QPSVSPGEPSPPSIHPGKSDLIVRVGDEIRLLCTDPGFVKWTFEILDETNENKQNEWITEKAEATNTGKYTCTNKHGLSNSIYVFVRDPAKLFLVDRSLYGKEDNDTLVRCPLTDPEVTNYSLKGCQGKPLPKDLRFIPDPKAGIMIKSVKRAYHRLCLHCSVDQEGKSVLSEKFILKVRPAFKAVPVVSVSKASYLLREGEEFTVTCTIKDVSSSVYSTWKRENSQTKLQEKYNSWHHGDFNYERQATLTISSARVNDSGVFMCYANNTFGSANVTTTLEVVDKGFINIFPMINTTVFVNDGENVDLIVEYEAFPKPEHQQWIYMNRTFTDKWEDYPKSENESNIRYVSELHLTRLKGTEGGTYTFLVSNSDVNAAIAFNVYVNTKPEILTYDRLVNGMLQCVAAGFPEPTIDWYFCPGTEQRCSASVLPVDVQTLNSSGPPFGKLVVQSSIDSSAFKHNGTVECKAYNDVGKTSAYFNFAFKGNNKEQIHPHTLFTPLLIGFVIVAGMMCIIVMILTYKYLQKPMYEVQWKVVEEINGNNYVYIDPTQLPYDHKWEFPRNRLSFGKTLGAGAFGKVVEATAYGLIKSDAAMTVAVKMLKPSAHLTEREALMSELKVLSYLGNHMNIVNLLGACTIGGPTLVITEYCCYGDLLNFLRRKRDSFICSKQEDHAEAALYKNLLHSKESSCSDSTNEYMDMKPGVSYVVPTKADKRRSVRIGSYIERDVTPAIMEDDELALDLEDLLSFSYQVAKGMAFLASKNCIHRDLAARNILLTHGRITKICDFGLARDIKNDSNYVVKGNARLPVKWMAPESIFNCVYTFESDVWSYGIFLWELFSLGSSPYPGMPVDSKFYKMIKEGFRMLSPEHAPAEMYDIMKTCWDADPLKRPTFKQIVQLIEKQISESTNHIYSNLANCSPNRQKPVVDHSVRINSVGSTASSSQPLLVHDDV

In the case of `Cc1nc(-c2ccc(C)c(NC(=O)c3cnc4ccc(-c5cccn5C)cn34)c2)no1` [F101], the IC50 (Table 1) worked out at 80 nM. On the same count and under the same terms, for `Cc1ccc(-c2noc(CCC#N)n2)cc1NC(=O)c1cnc2ccccn12` [F1] the value was 78 nM. For `COC(=O)NCc1nc(-c2ccc(C)c(NC(=O)c3cnc4cc(C#N)ccn34)c2)no1` [F158], the IC50 (Table 2) turned out to be 779 nM. Regarding `Cc1ccc(-c2noc(CCC(C)(C)O)n2)cc1NC(=O)c1cnc2cc(-c3cnn(C)c3)ccn12` [F63], under “Table 1”, the concentration for half-maximal inhibition (IC50) was 7 nM.

Turning to `Cc1nc(-c2ccc(C)c(NC(=O)c3cnc4ccc(-c5ccnn5C)cn34)c2)no1` [F208], for the setting “Table 2”, the IC50 stood at 228 nM.

Consider `Cc1nc(-c2ccc(C)c(NC(=O)c3cnc4ccc(-c5cnccc5C)cn34)c2)no1` [F202], for which the IC50 (Table 2) worked out at 135 nM.

Regarding `CO[C@@H](C)C(=O)NCc1nc(-c2ccc(C)c(NC(=O)c3cnc4ccccn34)c2)no1` [F133], the half-maximal inhibitory concentration (IC50) (Table 2) is 183 nM. The same measure, in the same setting: as for `Cc1nc(-c2ccc(C)c(NC(=O)c3cnc4ccc(-c5nc(C)c(C)s5)cn34)c2)no1` [F237], the figure is 182 nM. Consider `Cc1nc(-c2ccc(C)c(NC(=O)c3cnc4ccc(-c5ccncc5C)cn34)c2)no1` [F83], for which, for the setting “Table 1”, the IC50 was 48 nM.

Regarding `Cc1ccc(-c2noc(CCC(=O)O)n2)cc1NC(=O)c1cnc2ccccn12` [F229], the 50% inhibitory concentration (IC50) (Table 2) amounted to 5450 nM. As to `Cc1ccc(-c2noc(COCC(F)F)n2)cc1NC(=O)c1cnc2ccccn12` [F94, N-(5-(5-((2,2-difluoroethoxy)methyl)-1,2,4-oxadiazol-3-yl)-2-methylphenyl)imidazo[1,2-a]pyridine-3-carboxamide], the half-inhibitory concentration (IC50) (Table 1) was 39 nM. In the case of `COC(=O)NCCc1nc(-c2ccc(C)c(NC(=O)c3cnc4ccccn34)c2)no1` [F122], the IC50 (Table 2) was found to be 326 nM.

On to `Cc1nc(-c2ccc(C)c(NC(=O)c3cnc4ccc(-c5c(C)nn(CC(=O)NCCN6CCOCC6)c5C)cn34)c2)no1` [F239], for which the concentration for half-maximal inhibition (IC50) (Table 2) was determined as 193 nM.

For the molecule `Cc1nc(-c2ccc(C)c(NC(=O)c3cnc4ccc(CCN5CCOCC5)cn34)c2)no1` [F212], the IC50 (Table 2) amounted to 691 nM. Consider `CCNCc1nc(-c2ccc(C)c(NC(=O)c3cnc4ccccn34)c2)no1` [F145], for which, under “Table 2”, the IC50 worked out at 219 nM. For the molecule `Cc1nc(-c2ccc(C)c(NC(=O)c3cnc4ccc(-c5c(C)nn(C)c5C)cn34)c2)no1` [F100], the IC50 (Table 1) was 19 nM. The same measure, in the same setting: as for `Cc1ccc(-c2noc(CCC(C)(C)O)n2)cc1NC(=O)c1cnc2ccccn12` [F8, N-(5-(5-(3-hydroxy-3-methylbutyl)-1,2,4-oxadiazol-3-yl)-2-methylphenyl)imidazo[1,2-a]pyridine-3-carboxamide], the figure is 63 nM; as for `COCCOCc1nc(-c2ccc(C)c(NC(=O)c3cnc4ccc(F)cn34)c2)no1` [F37], 92 nM. The same measure, in the same setting: for `Cc1ccc(-c2noc(CCC(C)(C)O)n2)cc1NC(=O)c1cnc2cc(N3CCCC3=O)ccn12` [F62] the value was 79 nM. Take `Cc1ccc(-c2noc(COCCOCC(F)(F)F)n2)cc1NC(=O)c1cnc2ccc(F)cn12` [F175]: the concentration for half-maximal inhibition (IC50) (Table 2) turned out to be 104 nM. Same read-out and setting: for `Cc1ccc(-c2noc(CO)n2)cc1NC(=O)c1cnc2ccccn12` [F124] the value was 217 nM. Consider `COCCOCc1nc(-c2cc(NC(=O)c3cnc4ccccn34)c(C)cc2C)no1` [F190], for which the IC50 (Table 2) was 119 nM. The same measure, in the same setting: for `Cc1ccc(-c2noc(C(F)C(F)(F)F)n2)cc1NC(=O)c1cnc2ccccn12` (stereo not drawn) [F199] the value was 126 nM. With `[2H]c1c([2H])c([2H])n2c(C(=O)Nc3cc(-c4noc(COCCOC)n4)ccc3C)cnc2c1[2H]` [F53, N-(5-(5-((2-methoxyethoxy)methyl)-1,2,4-oxadiazol-3-yl)-2-methylphenyl)5,6,7,8,deutero-imidazo[1,2-a]pyridine-3-carboxamide], the IC50 (Table 1) was 61 nM. With `Cc1ccc(-c2noc(COCCO)n2)cc1NC(=O)c1cnc2ccccn12` [F163], the IC50 (Table 2) is 192 nM. As for `CCOC(=O)NCc1nc(-c2ccc(C)c(NC(=O)c3cnc4ccc(F)cn34)c2)no1` [F38], the half-inhibitory concentration (IC50) (Table 1) worked out at 47 nM.

Regarding `Cc1ccc(-c2noc(CNC(=O)OCCC(F)(F)F)n2)cc1NC(=O)c1cnc2ccccn12` [F220], the 50% inhibitory concentration (IC50) (Table 2) was 1190 nM. The same measure, in the same setting: for `COC(=O)N[C@H](C)Cc1nc(-c2ccc(C)c(NC(=O)c3cnc4ccccn34)c2)no1` [F150] the value was 196 nM. In the case of `Cc1ccc(-c2noc(CC[C@](C)(O)C(F)(F)F)n2)cc1NC(=O)c1cnc2cc(F)ccn12` [F86], the half-inhibitory concentration (IC50) (Table 1) stood at 43 nM. `Cc1ccc(-c2nc(C(C)(C)C)no2)cc1NC(=O)c1cnc2ccccn12` [F225]: the IC50 (Table 2) worked out at 1590 nM. For the molecule `Cc1ccc(-c2noc(CNC(=O)CCOCC(F)(F)F)n2)cc1NC(=O)c1cnc2ccccn12` [F166], the IC50 (Table 2) was found to be 213 nM. For `CCN(Cc1nc(-c2ccc(C)c(NC(=O)c3cnc4ccccn34)c2)no1)C(=O)OC` [F23], the half-inhibitory concentration (IC50) (Table 1) amounted to 59 nM. As for `Cc1ccc(-c2noc(CCN)n2)cc1NC(=O)c1cnc2ccccn12` [F226], under “Table 2”, the IC50 was 2180 nM. `Cc1cc(-c2ccc3ncc(C(=O)Nc4cc(-c5noc(C)n5)ccc4C)n3c2)n(C)n1` [F207]: under “Table 2”, the IC50 stood at 223 nM. With `Cc1nc(-c2ccc(C)c(NC(=O)c3cnc4ccc(-c5sc(CO)nc5C)cn34)c2)no1` [F265, 6-(2-(hydroxymethyl)-4-methylthiazol-5-yl)-N-(2-methyl-5-(5-methyl-1,2,4-oxadiazol-3-yl)phenyl)imidazo[1,2-a]pyridine-3-carboxamide], the IC50 (Table 1) stood at 8 nM. Consider `COC(=O)NCc1nc(-c2ccc(C)c(NC(=O)c3cnc4ccc(F)cn34)c2)no1` [F167, methyl (3-(3-(6-fluoroimidazo[1,2-a]pyridine-3-carboxamido)-4-methylphenyl)-1,2,4-oxadiazol-5-yl)methylcarbamate], for which the half-maximal inhibitory concentration (IC50) (Table 2) came out at 166 nM. Same read-out and setting: as for `COC(=O)NCc1nc(-c2ccc(C)c(NC(=O)c3cnc4ccccn34)c2)no1` [F128], the figure is 113 nM. With `Cc1nc(-c2ccc(C)c(NC(=O)c3cnc4ccc(C(N)=O)cn34)c2)no1` [F240], the IC50 (Table 2) amounted to 1480 nM. On the same count and under the same terms, as for `Cc1ccc(-c2noc(CCCNC(=O)OC(C)(C)C)n2)cc1NC(=O)c1cnc2ccccn12` [F111], the figure is 364 nM; as for `Cc1ccc(-c2noc(C[C@@H](C)NS(C)(=O)=O)n2)cc1NC(=O)c1cnc2ccccn12` [F149], 220 nM; as for `CCN(CC)C(=O)Cc1nc(-c2ccc(C)c(NC(=O)c3cnc4ccccn34)c2)no1` [F210], 431 nM.

Turning to `Cc1ccc(-c2noc(CCCNS(C)(=O)=O)n2)cc1NC(=O)c1cnc2ccccn12` [F115], under “Table 2”, the concentration for half-maximal inhibition (IC50) is 772 nM. Consider `Cc1ccc(-c2noc(COCCOC(C)C)n2)cc1NC(=O)c1cnc2ccccn12` [F33, N-(5-(5-((2-isopropoxyethoxy)methyl)-1,2,4-oxadiazol-3-yl)-2-methylphenyl)imidazo[1,2-a]pyridine-3-carboxamide], for which the IC50 (Table 1) amounted to 81 nM. Still for that read-out and setting: as for `Cc1ccc2ncc(C(=O)Nc3cc(-c4noc(CC[C@@](C)(O)C(F)(F)F)n4)ccc3C)n2c1` [F87], the figure is 29 nM. `Cc1ccc(-c2noc(C(C)(C)NC(=O)OC(C)(C)C)n2)cc1NC(=O)c1cnc2ccccn12` [F143]: the concentration for half-maximal inhibition (IC50) (Table 2) was determined as 201 nM. `Cc1ccc(-c2noc(CCC(=O)OC(C)C)n2)cc1NC(=O)c1cnc2ccccn12` [F55a, isopropyl 3-(3-(3-(imidazo[1,2-a]pyridine-3-carboxamido)-4-methylphenyl)-1,2,4-oxadiazol-5-yl)propanoate]: the IC50 (Table 1) was 92 nM.

For the molecule `Cc1ccc(-c2noc(CCCS(N)(=O)=O)n2)cc1NC(=O)c1cnc2ccccn12` [F110], the half-inhibitory concentration (IC50) (Table 2) stood at 367 nM. The same measure, in the same setting: for `Cc1ccc(-c2noc(CCC(C)(C)O)n2)cc1NC(=O)c1cnc2c(N)cccn12` [F246] the value was 1800 nM.

With `Cc1ccc(-c2noc(CCC(C)(C)O)n2)cc1NC(=O)c1cnc2cc(N3CCOCC3)ccn12` [F60], under “Table 1”, the half-inhibitory concentration (IC50) was found to be 58 nM. In the case of `Cc1ccc(-c2noc(CCC(C)(C)O)n2)cc1NC(=O)c1cnc2ccc(N3CCOCC3)cn12` [F194], the IC50 (Table 2) is 126 nM.

Consider `Cc1nc(-c2ccc(C)c(NC(=O)c3cnc4ccc(-c5c(C)n[nH]c5C)cn34)c2)no1` [F104, 6-(3,5-dimethyl-1H-pyrazol-4-yl)-N-(2-methyl-5-(5-methyl-1,2,4-oxadiazol-3-yl)phenyl)imidazo[1,2-a]pyridine-3-carboxamide], for which, under “Table 1”, the IC50 was determined as 9 nM. For `CC(C)(O)CCc1nc(-c2ccc(F)c(NC(=O)c3cnc4ccc(-c5cnn(CC(C)(C)O)c5)cn34)c2)no1` [F183], the IC50 (Table 2) was 394 nM.

Regarding “(S)-1,1,1-trifluoro-2-methyl-4-(3-(4-methyl-3-(7-methylimidazo[1,2-a]pyridine-3-carboxamido)phenyl)-1,2,4-oxadiazol-5-yl)butan-2-yl dihydrouen phosphate [F268]”, the IC50 (Table 1) turned out to be 26 nM. With `CNC(=O)c1ccc(-c2ccc3ncc(C(=O)Nc4cc(-c5noc(C)n5)ccc4C)n3c2)cn1` [F93], where the note is “Table 1”, the IC50 amounted to 68 nM. On to `Cc1ccc(-c2noc(NCC(C)(C)O)n2)cc1NC(=O)c1cnc2cc(F)ccn12` [F192], for which the IC50 (Table 2) worked out at 313 nM. `Cc1nc(-c2ccc(C)c(NC(=O)c3cnc4ccc(-c5ccccc5C)cn34)c2)no1` [F81, N-(2-methyl-5-(5-methyl-1,2,4-oxadiazol-3-yl)phenyl)-6-(o-tolyl)imidazo[1,2-a]pyridine-3-carboxamide]: under “Table 1”, the IC50 was determined as 96 nM. For `COCCNC(=O)OCc1nc(-c2ccc(C)c(NC(=O)c3cnc4ccccn34)c2)no1` [F131], the IC50 (Table 2) worked out at 139 nM.

Regarding `CC(=O)NCc1nc(-c2ccc(C)c(NC(=O)c3cnc4ccccn34)c2)no1` [F141], the IC50 (Table 2) was 867 nM. As to `CNC(=O)c1sc(-c2ccc3ncc(C(=O)Nc4cc(-c5noc(C)n5)ccc4C)n3c2)nc1C` [F258, N,4-dimethyl-2-(3-((2-methyl-5-(5-methyl-1,2,4-oxadiazol-3-yl)phenyl)carbamoyl)imidazo[1,2-a]pyridin-6-yl)thiazole-5-carboxamide], the IC50 (Table 1) is 65 nM. For `Cc1ccn2c(C(=O)Nc3cc(-c4noc(NCCF)n4)ccc3C)cnc2c1` [F68], where the note is “Table 1”, the IC50 amounted to 54 nM.
